Assay results as given in ChEMBL document CHEMBL1201861, “Genomics of Drug Sensitity in Cancer screening data, Wellcome Trust Sanger Institute”.

How the values were obtained:
Assay in all cases: cells
Settings in all cases: Homo sapiens
SK-UT-1 = format: functional, cell-based;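 note: growth inhibition of SK-UT-1 cells, measured by a cell viability assay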
Description: SANGER: Inhibition of human SK-UT-1 cell growth in a cell viability assay.

NCI-H1304 = format: functional, cell-based;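 note: growth inhibition of the cancer cell line, measured in a cell viability assay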
Description: SANGER: Inhibition of human NCI-H1304 cell growth in a cell viability assay.

KS-1 = format: functional, cell-based;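 note: growth inhibition of KS-1 cells, read out with a cell viability assay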
Description: SANGER: Inhibition of human KS-1 cell growth in a cell viability assay.

MMAC-SF = format: functional, cell-based;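 note: growth inhibition of human MMAC-SF cells, read out with a cell viability assay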
Description: SANGER: Inhibition of human MMAC-SF cell growth in a cell viability assay.

LB831-BLC = format: functional, cell-based;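 note: growth inhibition of LB831-BLC cells, read out with a cell viability assay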
Description: SANGER: Inhibition of human LB831-BLC cell growth in a cell viability assay.

D-263MG = format: functional, cell-based
Description: SANGER: Inhibition of human D-263MG cell growth in a cell viability assay.

NCI-H82 = format: functional, cell-based;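 note: growth inhibition of NCI-H82 cells, measured with a cell viability readout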
Description: SANGER: Inhibition of human NCI-H82 cell growth in a cell viability assay.

C2BBe1 = format: functional, cell-based;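 note: growth inhibition of C2BBe1 cells, read out through a viability assay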
Description: SANGER: Inhibition of human C2BBe1 cell growth in a cell viability assay.

ES4 = format: functional, cell-based;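 note: growth inhibition of human ES4 cells, read out by a cell viability assay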
Description: SANGER: Inhibition of human ES4 cell growth in a cell viability assay.

CTV-1 = format: functional, cell-based;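 note: growth inhibition of the cell line, read out with a cell viability assay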
Description: SANGER: Inhibition of human CTV-1 cell growth in a cell viability assay.

C8166 = format: functional, cell-based;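 note: growth inhibition of human C8166 cells measured by a cell viability assay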
Description: SANGER: Inhibition of human C8166 cell growth in a cell viability assay.

LAMA-84 = format: functional, cell-based;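 note: growth inhibition of LAMA-84 cells, read out with a cell viability assay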
Description: SANGER: Inhibition of human LAMA-84 cell growth in a cell viability assay.

MHH-NB-11 = format: functional, cell-based;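 note: growth inhibition of human MHH-NB-11 cells, read out by a cell viability assay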
Description: SANGER: Inhibition of human MHH-NB-11 cell growth in a cell viability assay.

A704 = format: functional, cell-based;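 note: growth inhibition of human A704 cells, read out with a cell viability assay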
Description: SANGER: Inhibition of human A704 cell growth in a cell viability assay.

SCH = format: functional, cell-based;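 note: growth inhibition of human SCH cells, read out in a cell viability assay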
Description: SANGER: Inhibition of human SCH cell growth in a cell viability assay.

KM-H2 = format: functional, cell-based;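 note: growth inhibition of KM-H2 cells, read out by a cell viability assay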
Description: SANGER: Inhibition of human KM-H2 cell growth in a cell viability assay.

JAR = format: functional, cell-based;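 note: growth inhibition of human JAR cells determined with a cell viability assay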
Description: SANGER: Inhibition of human JAR cell growth in a cell viability assay.

ETK-1 = format: functional, cell-based;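 note: growth inhibition of human ETK-1 cells, read out with a cell viability assay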
Description: SANGER: Inhibition of human ETK-1 cell growth in a cell viability assay.

ES5 = format: functional, cell-based;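 note: growth inhibition of human ES5 cells, read out by a cell viability assay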
Description: SANGER: Inhibition of human ES5 cell growth in a cell viability assay.

EW-13 = format: functional, cell-based;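 note: growth inhibition of EW-13 cells, read out with a cell viability assay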
Description: SANGER: Inhibition of human EW-13 cell growth in a cell viability assay.

TE-10 = format: functional, cell-based;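 note: growth inhibition of TE-10 cells, measured by a cell viability assay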
Description: SANGER: Inhibition of human TE-10 cell growth in a cell viability assay.

MOLT-16 = format: functional, cell-based;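 note: growth inhibition of human MOLT-16 cells, read out with a cell viability assay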
Description: SANGER: Inhibition of human MOLT-16 cell growth in a cell viability assay.

SK-LMS-1 = format: functional, cell-based;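 note: growth inhibition of human SK-LMS-1 cells, read out with a cell viability assay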
Description: SANGER: Inhibition of human SK-LMS-1 cell growth in a cell viability assay.

MEG-01 = format: functional, cell-based;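 note: growth inhibition of MEG-01 cells, read out by a cell viability assay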
Description: SANGER: Inhibition of human MEG-01 cell growth in a cell viability assay.

CCRF-CEM = format: functional, cell-based;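 note: inhibition of CCRF-CEM cell growth, measured by a cell viability assay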
Description: SANGER: Inhibition of human CCRF-CEM cell growth in a cell viability assay.

8-MG-BA = format: functional, cell-based;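 note: growth inhibition of 8-MG-BA cells, read out with a cell viability assay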
Description: SANGER: Inhibition of human 8-MG-BA cell growth in a cell viability assay.

MFM-223 = format: functional, cell-based
Description: SANGER: Inhibition of human MFM-223 cell growth in a cell viability assay.

GT3TKB = format: functional, cell-based;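 note: growth inhibition of the cell line, read out with a cell viability assay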
Description: SANGER: Inhibition of human GT3TKB cell growth in a cell viability assay.

KY821 = format: functional, cell-based;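 note: growth inhibition of human KY821 cells, read out by a cell viability assay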
Description: SANGER: Inhibition of human KY821 cell growth in a cell viability assay.

KNS-42 = format: functional, cell-based;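 note: growth inhibition of KNS-42 cells, read out with a cell viability assay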
Description: SANGER: Inhibition of human KNS-42 cell growth in a cell viability assay.

HEL = format: functional, cell-based;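 note: growth inhibition of HEL cells, read out with a cell viability assay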
Description: SANGER: Inhibition of human HEL cell growth in a cell viability assay.

OS-RC-2 = format: functional, cell-based;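 note: growth inhibition of human OS-RC-2 cells, measured by a cell viability assay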
Description: SANGER: Inhibition of human OS-RC-2 cell growth in a cell viability assay.

NTERA-2-cl-D1 = format: functional, cell-based;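 note: inhibition of cell growth, measured with a cell viability assay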
Description: SANGER: Inhibition of human NTERA-S-cl-D1 cell growth in a cell viability assay.

A388 = format: functional, cell-based;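 note: growth inhibition of human A388 cells, read out with a cell viability assay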
Description: SANGER: Inhibition of human A388 cell growth in a cell viability assay.

RCC10RGB = format: functional, cell-based;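 note: growth inhibition of human RCC10RGB cells, read out by a cell viability assay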
Description: SANGER: Inhibition of human RCC10RGB cell growth in a cell viability assay.

KMOE-2 = format: functional, cell-based;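 note: growth inhibition of human KMOE-2 cells, read out with a cell viability assay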
Description: SANGER: Inhibition of human KMOE-2 cell growth in a cell viability assay.

IST-MEL1 = format: functional, cell-based;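 note: growth inhibition of the cell line, read out with a cell viability assay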
Description: SANGER: Inhibition of human IST-MEL1 cell growth in a cell viability assay.

COLO-824 = format: functional, cell-based
Description: SANGER: Inhibition of human COLO-824 cell growth in a cell viability assay.

BT-474 = format: functional, cell-based
Description: SANGER: Inhibition of human BT-474 cell growth in a cell viability assay.

COLO-684 = format: functional, cell-based
Description: SANGER: Inhibition of human COLO-684 cell growth in a cell viability assay.

KM12 = format: functional, cell-based;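 note: KM12 cell growth inhibition, read out with a cell viability assay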
Description: SANGER: Inhibition of human KM12 cell growth in a cell viability assay.

KE-37 = format: functional, cell-based;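 note: growth inhibition of KE-37 cells, read out with a cell viability assay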
Description: SANGER: Inhibition of human KE-37 cell growth in a cell viability assay.

DOHH-2 = format: functional, cell-based;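 note: growth inhibition of human DOHH-2 cells, read out with a cell viability assay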
Description: SANGER: Inhibition of human DOHH-2 cell growth in a cell viability assay.

LB1047-RCC = format: functional, cell-based;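 note: inhibition of cell growth, determined with a cell viability assay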
Description: SANGER: Inhibition of human LB1047-RCC cell growth in a cell viability assay.

MN-60 = format: functional, cell-based;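 note: growth inhibition of the MN-60 cell line, determined with a cell viability assay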
Description: SANGER: Inhibition of human MN-60 cell growth in a cell viability assay.

RH-1 = format: functional, cell-based;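 note: growth inhibition of human RH-1 cells, read out with a cell viability assay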
Description: SANGER: Inhibition of human RH-1 cell growth in a cell viability assay.

TE-11 = format: functional, cell-based;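 note: growth inhibition of human TE-11 cells, read out by a cell viability assay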
Description: SANGER: Inhibition of human TE-11 cell growth in a cell viability assay.

OCUB-M = format: functional, cell-based;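 note: growth inhibition of the cancer cell line, read out through a cell viability assay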
Description: SANGER: Inhibition of human OCUB-M cell growth in a cell viability assay.

BB49-HNC = format: functional, cell-based;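 note: cell viability assay read-out, reported as inhibition of BB49-HNC cell growth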
Description: SANGER: Inhibition of human BB49-HNC cell growth in a cell viability assay.

Mo = format: functional, cell-based
Description: SANGER: Inhibition of human Mo-T cell growth in a cell viability assay.

LNCaP-Clone-FGC = format: functional, cell-based
Description: SANGER: Inhibition of human LNCaP-Clone-FGC cell growth in a cell viability assay.

HuTu80 = format: functional, cell-based, HUTU-80;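 note: growth inhibition of HuTu80 human cells, determined with a cell viability readout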
Description: SANGER: Inhibition of human HUTU-80 cell growth in a cell viability assay.

L-428 = format: functional, cell-based
Description: SANGER: Inhibition of human L-428 cell growth in a cell viability assay.

HL-60 = format: functional, cell-based;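 note: growth inhibition of human HL-60 cells, read out with a cell viability assay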
Description: SANGER: Inhibition of human HL-60 cell growth in a cell viability assay.

DSH1 = format: functional, cell-based;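 note: growth inhibition of human DSH1 cells, measured with a cell viability readout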
Description: SANGER: Inhibition of human DSH1 cell growth in a cell viability assay.

KARPAS-45 = format: functional, cell-based;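 note: inhibition of cell line growth, read out through a viability assay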
Description: SANGER: Inhibition of human KARPAS-45 cell growth in a cell viability assay.

COR-L88 = format: functional, cell-based;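 note: growth inhibition of COR-L88 cells, read out with a cell viability assay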
Description: SANGER: Inhibition of human COR-L88 cell growth in a cell viability assay.

SNU-5 = format: functional, cell-based;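 note: cell viability readout used to measure growth inhibition in human NCI-SNU-5 cells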
Description: SANGER: Inhibition of human NCI-SNU-5 cell growth in a cell viability assay.

LXF-289 cell line = format: functional, cell-based
Description: SANGER: Inhibition of human LXF-289 cell growth in a cell viability assay.

EW-1 = format: functional, cell-based
Description: SANGER: Inhibition of human EW-1 cell growth in a cell viability assay.

A498 = format: functional, cell-based
Description: SANGER: Inhibition of human A498 cell growth in a cell viability assay.

BE-13 = format: functional, cell-based
Description: SANGER: Inhibition of human BE-13 cell growth in a cell viability assay.

TE-6 = format: functional, cell-based
Description: SANGER: Inhibition of human TE-6 cell growth in a cell viability assay.

NOMO-1 = format: functional, cell-based
Description: SANGER: Inhibition of human NOMO-1 cell growth in a cell viability assay.

A3-KAW = format: functional, cell-based
Description: SANGER: Inhibition of human A3-KAW cell growth in a cell viability assay.

BV-173 = format: functional, cell-based
Description: SANGER: Inhibition of human BV-173 cell growth in a cell viability assay.

CCNc1cc(N[C@H]2CC[C@@H](O)CC2)nc(Nc2ccc3c(ccn3Cc3ccccc3)c2)n1
IC50 (SK-UT-1): > 5.12 µM
IC50 (NCI-H1304): > 5.12 µM
IC50 (KS-1): 4.3 µM
IC50 (MMAC-SF): > 5.12 µM
IC50 (LB831-BLC): > 5.12 µM
IC50 (D-263MG): > 5.12 µM
IC50 (NCI-H82): > 5.12 µM
IC50 (C2BBe1): > 5.12 µM
IC50 (ES4): > 5.12 µM
IC50 (CTV-1): > 5.12 µM
IC50 (C8166): > 5.12 µM
IC50 (LAMA-84): > 5.12 µM
IC50 (MHH-NB-11): > 5.12 µM
IC50 (A704): > 5.12 µM
IC50 (SCH): > 5.12 µM
IC50 (KM-H2): > 5.12 µM
IC50 (JAR): > 5.12 µM
IC50 (ETK-1): 0.242 µM
IC50 (ES5): > 5.12 µM
IC50 (EW-13): > 5.12 µM
IC50 (TE-10): 4.39 µM
IC50 (MOLT-16): > 5.12 µM
IC50 (SK-LMS-1): > 5.12 µM
IC50 (MEG-01): > 5.12 µM
IC50 (CCRF-CEM): > 5.12 µM
IC50 (8-MG-BA): > 5.12 µM
IC50 (MFM-223): > 5.12 µM
IC50 (GT3TKB): > 5.12 µM
IC50 (KY821): > 5.12 µM
IC50 (KNS-42): > 5.12 µM
IC50 (HEL): > 5.12 µM
IC50 (OS-RC-2): > 5.12 µM
IC50 (NTERA-2-cl-D1): > 5.12 µM
IC50 (A388): > 5.12 µM
IC50 (RCC10RGB): > 5.12 µM
IC50 (KMOE-2): > 5.12 µM
IC50 (IST-MEL1): > 5.12 µM
IC50 (COLO-824): > 5.12 µM
IC50 (BT-474): > 5.12 µM
IC50 (COLO-684): > 5.12 µM
IC50 (KM12): > 5.12 µM
IC50 (KE-37): > 5.12 µM
IC50 (DOHH-2): 3.46 µM
IC50 (LB1047-RCC): > 5.12 µM
IC50 (MN-60): > 5.12 µM
IC50 (RH-1): > 5.12 µM
IC50 (TE-11): > 5.12 µM
IC50 (OCUB-M): > 5.12 µM
IC50 (BB49-HNC): > 5.12 µM
IC50 (Mo): > 5.12 µM
IC50 (LNCaP-Clone-FGC): > 5.12 µM
IC50 (HuTu80): > 5.12 µM
IC50 (L-428): > 5.12 µM
IC50 (HL-60): > 5.12 µM
IC50 (DSH1): > 5.12 µM
IC50 (KARPAS-45): > 5.12 µM
IC50 (COR-L88): > 5.12 µM
IC50 (SNU-5): > 5.12 µM
IC50 (LXF-289 cell line): > 5.12 µM
IC50 (EW-1): > 5.12 µM
IC50 (A498): > 5.12 µM
IC50 (BE-13): > 5.12 µM
IC50 (TE-6): > 5.12 µM
IC50 (NOMO-1): > 5.12 µM
IC50 (A3-KAW): 1.91 µM
IC50 (BV-173): > 5.12 µM
